These molecules were tested on Escherichia coli ATCC 25922 (assay: 50% growth inhibitory concentration (IC50) determination, Iso-Sensitest broth dilution). Conditions: Escherichia coli, ATCC25922, 16 h, strain Escherichia coli ATCC 25922; 10-point broth dilution, optical density at 600 nm over 16 h; read-out: Escherichia coli growth inhibition IC50.
Assay type: cell-based
Outline: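 Growth was tracked as optical density at 600 nm every 20 minutes for 16 h at 35±2° C. Compounds from DMSO stocks were serially diluted twofold over 10 points (e.g. 50–0.097 μM final) in Iso-Sensitest broth. Inhibition computed in log-phase growth to give IC50.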

Cc1ncc(F)c2c1CC(NCCCC1CN(c3cnc4c(n3)NC(=O)CO4)C(=O)O1)C2 (stereo not drawn) [Example 79, 6-[5-[3-[(4-fluoro-1-methyl-6,7-dihydro-5H-cyclopenta[c]pyridin-6-yl)amino]propyl]-2-oxo-1,3-oxazolidin-3-yl]-4H-pyrazino[2,3-b][1,4]oxazin-3-one] and Cc1nc(C#N)c2c(c1F)CC(CNCCC1CN(c3cnc4c(n3)NC(=O)CO4)C(=O)O1)C2 (stereo not drawn) [Example 363, 4-fluoro-3-methyl-6-[[2-[2-oxo-3-(3-oxo-4H-pyrazino[2,3-b][1,4]oxazin-6-yl)-1,3-oxazolidin-5-yl]ethylamino]methyl]-6,7-dihydro-5H-cyclopenta[c]pyridine-1-carbonitrile; formic acid] cannot be ordered by IC50: less than 97.7 nM for the first, less than 97.7 nM for the second.

First: CNC(=O)C(N)COc1cc(F)c2c(c1)CC(CNCCC1CN(c3ccc4c(n3)NC(=O)CO4)C(=O)O1)C2 (stereo not drawn) [Example 255, 2-Amino-3-[[7-fluoro-2-[[2-[2-oxo-3-(3-oxo-4H-pyrido[3,2-b][1,4]oxazin-6-yl)-1,3-oxazolidin-5-yl]ethylamino]methyl]-2,3-dihydro-1H-inden-5-yl]oxy]-N-methylpropanamide; formic acid]
Second: NC1(COc2cc3c(c(Cl)n2)CC(CNCCC2CN(c4ccc5c(n4)NC(=O)CO5)C(=O)O2)C3)CC1 (stereo not drawn) [Example 122, 6-[5-[2-[[3-[(1-aminocyclopropyl)methoxy]-1-chloro-6,7-dihydro-5H-cyclopenta[c]pyridin-6-yl]methylamino]ethyl]-2-oxo-1,3-oxazolidin-3-yl]-4H-pyrido[3,2-b][1,4]oxazin-3-one; formic acid]
The IC50 of the first is higher: 180 nM for the first, less than 97.7 nM for the second.

Compared with Cc1c(OCC2CCN2)ncc2c1CC(CNCCC1CN(c3ccc4c(n3)NC(=O)CO4)C(=O)O1)C2 (stereo in doubt) [Example 219, 6-[5-[2-[[4-methyl-3-[[(2R)-azetidin-2-yl]methoxy]-6,7-dihydro-5H-cyclopenta[c]pyridin-6-yl]methylamino]ethyl]-2-oxo-1,3-oxazolidin-3-yl]-4H-pyrido[3,2-b][1,4]oxazin-3-one], N#Cc1c(OC2COC2)ccc2c1CC(CNCCC1CN(c3ccc4c(n3)NC(=O)CO4)C(=O)O1)C2 (stereo not drawn) [Example 63, 5-(oxetan-3-yloxy)-2-[[2-[2-oxo-3-(3-oxo-4H-pyrido[3,2-b][1,4]oxazin-6-yl)-1,3-oxazolidin-5-yl]ethylamino]methyl]-2,3-dihydro-1H-indene-4-carbonitrile] is lower in IC50: 378 nM for the first, less than 97.7 nM for the second. The second is the more potent here.

First: CCOC(=O)c1cn(CC)c2c3c(c(F)cc2c1=O)CC(CNCCC1CN(c2ccc4c(n2)NC(=O)CO4)C(=O)O1)C3 (stereo not drawn) [Example 225, ethyl 1-ethyl-6-fluoro-4-oxo-8-[[2-[2-oxo-3-(3-oxo-4H-pyrido[3,2-b][1,4]oxazin-6-yl)-1,3-oxazolidin-5-yl]ethylamino]methyl]-8,9-dihydro-7H-cyclopenta[h]quinoline-3-carboxylate]
Second: CNC(=O)COc1cc(F)c2c(c1F)CC(CNCCC1CN(c3cnc4c(n3)NC(=O)CO4)C(=O)O1)C2 (stereo not drawn) [Example 393, 2-[[4,7-difluoro-2-[[2-[2-oxo-3-(3-oxo-4H-pyrazino[2,3-b][1,4]oxazin-6-yl)-1,3-oxazolidin-5-yl]ethylamino]methyl]-2,3-dihydro-1H-inden-5-yl]oxy]-N-methylacetamide]
The IC50 of the first is higher: 547 nM for the first, less than 97.7 nM for the second.

First: N#Cc1c(OCCN2CCOCC2)ccc2c1CC(CNCCC1CN(c3ccc4c(n3)NC(=O)CO4)C(=O)O1)C2 (stereo not drawn) [Example 54, 5-(2-morpholin-4-ylethoxy)-2-[[2-[2-oxo-3-(3-oxo-4H-pyrido[3,2-b][1,4]oxazin-6-yl)-1,3-oxazolidin-5-yl]ethylamino]methyl]-2,3-dihydro-1H-indene-4-carbonitrile; formic acid]
Second: NC1c2cccc(F)c2CC1CNCCC1CN(c2ccc3c(n2)NC(=O)CO3)C(=O)O1 (racemic) [Example 163, 6-[5-[2-[(rac-1,2-trans-1-amino-4-fluoro-2,3-dihydro-1H-inden-2-yl)methylamino]ethyl]-2-oxo-1,3-oxazolidin-3-yl]-4H-pyrido[3,2-b][1,4]oxazin-3-one]
The IC50 of the first is 2.7-fold higher: 357 nM for the first, 131 nM for the second. The second is the more potent here.

First: O=C1COc2ccc(N3CC(CCCNC4Cc5ccc(F)cc5C4)OC3=O)nc2N1 (stereo not drawn) [Example 12, 6-[5-[3-[(5-fluoro-2,3-dihydro-1H-inden-2-yl)amino]propyl]-2-oxo-1,3-oxazolidin-3-yl]-4H-pyrido[3,2-b][1,4]oxazin-3-one; formic acid]
Second: NCCOc1cc(Cl)c2c(c1)CC(NCCCC1CN(c3ccc4c(n3)NC(=O)CO4)C(=O)O1)C2 (stereo not drawn) [Example 179, 6-[5-[3-[[6-(2-aminoethoxy)-4-chloro-2,3-dihydro-1H-inden-2-yl]amino]propyl]-2-oxo-1,3-oxazolidin-3-yl]-4H-pyrido[3,2-b][1,4]oxazin-3-one]
The IC50 of the first is 4.6-fold higher: 471 nM for the first, 103 nM for the second. The second is the more potent here.

— patent US20230167127A1, “COMPOUNDS AND THEIR USE IN THE TREATMENT OF BACTERIAL INFECTION” (Hoffmann-La Roche Inc., priority 2020, published 2023)
